# In ChEMBL document CHEMBL3885861, “Open TG-GATES”:
# Species: Rattus norvegicus
# Assay: Open TG-GATES - Regimen: Daily Repeat
# Assay type: toxicity, organism-based, Sprague-Dawley
# Set-up: regimen Daily Repeat, gender Male, age 6 weeks
# Details: in vivo, po, 100 mg/kg, route gavage, dose level Low; for APTT / Bas / Eos / Fbg / Hb / Ht / Lym / MCH / MCHC / MCV / Mono / Neu / PT / Plat / RBC / Ret / WBC: tissue Blood; for KIDNEY_L / KIDNEY_R / KIDNEY_TOTAL: tissue Kidney; for LIVER: tissue Liver; for A/G / ALP / ALT / AST / BUN / CRE / Ca / Cl / DBIL / GLC / IP / K / LDH / Na / PL / RALB / TBIL / TC / TG / TP / gamma-GTP: tissue Plasma
smiles,measurement,setting,value
CC(C)(S)[C@@H](N)C(=O)O [PENICILLAMINE],TERMINAL_BW,"72 h, time 3 day",236.4 g
same,APTT,"72 h, time 3 day",16.9 s
same,Bas,"72 h, time 3 day",0%
same,Eos,"72 h, time 3 day",1%
same,Fbg,"72 h, time 3 day",294.8 mg/dL
same,Hb,"72 h, time 3 day",13.7 g/dL
same,Ht,"72 h, time 3 day",41.6%
same,Lym,"72 h, time 3 day",78.8%
same,MCH,"72 h, time 3 day",20.9 pg
same,MCHC,"72 h, time 3 day",33%
same,MCV,"72 h, time 3 day",63.3 fL
same,Mono,"72 h, time 3 day",2.8%
same,Neu,"72 h, time 3 day",16.6%
same,PT,"72 h, time 3 day",14.1 s
same,Plat,"72 h, time 3 day",122 x10_4/uL
same,RBC,"72 h, time 3 day",658.2 x10_4/ul
same,Ret,"72 h, time 3 day",7.4%
same,WBC,"72 h, time 3 day",84.7 x10_2/uL
same,KIDNEY_L,"72 h, time 3 day",1 g
same,KIDNEY_R,"72 h, time 3 day",1 g
same,KIDNEY_TOTAL,"72 h, time 3 day",1.9 g
same,LIVER,"72 h, time 3 day",10.8 g
same,A/G,"72 h, time 3 day",0.9
same,ALP,"72 h, time 3 day",1491 IU/L
same,ALT,"72 h, time 3 day",40.2 IU/L
same,AST,"72 h, time 3 day",69.8 IU/L
same,BUN,"72 h, time 3 day",13 mg/dL
same,CRE,"72 h, time 3 day",0.2 mg/dL
same,Ca,"72 h, time 3 day",10.8 mg/dL
same,Cl,"72 h, time 3 day",106.6 meq/L
same,DBIL,"72 h, time 3 day",0.014 mg/dL
same,GLC,"72 h, time 3 day",183.8 mg/dL
same,IP,"72 h, time 3 day",7 mg/dL
same,K,"72 h, time 3 day",4.1 meq/L
same,LDH,"72 h, time 3 day",85 IU/L
same,Na,"72 h, time 3 day",143.8 meq/L
same,PL,"72 h, time 3 day",156 mg/dL
same,RALB,"72 h, time 3 day",2.7 g/dL
same,TBIL,"72 h, time 3 day",0.028 mg/dL
same,TC,"72 h, time 3 day",80.8 mg/dL
same,TG,"72 h, time 3 day",114.8 mg/dL
same,TP,"72 h, time 3 day",5.7 g/dL
same,gamma-GTP,"72 h, time 3 day",1.2 IU/L
same,TERMINAL_BW,"[…], time 7 day",276.9 g
same,TERMINAL_BW,"[…], time 14 day",325.3 g
same,TERMINAL_BW,"[…], time 28 day",410.3 g
same,APTT,"[…], time 7 day",17.9 s
same,Bas,"[…], time 7 day",0.2%
same,Eos,"[…], time 7 day",1%
same,Fbg,"[…], time 7 day",305.6 mg/dL
same,Hb,"[…], time 7 day",13.9 g/dL
same,Ht,"[…], time 7 day",42.4%
same,Lym,"[…], time 7 day",80.6%
same,MCH,"[…], time 7 day",20.7 pg
same,MCHC,"[…], time 7 day",32.9%
same,MCV,"[…], time 7 day",63 fL
same,Mono,"[…], time 7 day",2.4%
same,Neu,"[…], time 7 day",14.6%
same,PT,"[…], time 7 day",14.2 s
same,Plat,"[…], time 7 day",127.2 x10_4/uL
same,RBC,"[…], time 7 day",674.2 x10_4/ul
same,Ret,"[…], time 7 day",5.7%
same,WBC,"[…], time 7 day",102.7 x10_2/uL
same,APTT,"[…], time 14 day",17.2 s
same,Bas,"[…], time 14 day",0%
same,Eos,"[…], time 14 day",1%
same,Fbg,"[…], time 14 day",300.8 mg/dL
same,Hb,"[…], time 14 day",14.8 g/dL
same,Ht,"[…], time 14 day",43.6%
same,Lym,"[…], time 14 day",82.4%
same,MCH,"[…], time 14 day",20.7 pg
same,MCHC,"[…], time 14 day",34%
same,MCV,"[…], time 14 day",60.9 fL
same,Mono,"[…], time 14 day",1.8%
same,Neu,"[…], time 14 day",14%
same,PT,"[…], time 14 day",13.8 s
same,Plat,"[…], time 14 day",111.4 x10_4/uL
same,RBC,"[…], time 14 day",716 x10_4/ul
same,Ret,"[…], time 14 day",3.9%
same,WBC,"[…], time 14 day",83.6 x10_2/uL
same,APTT,"[…], time 28 day",18.8 s
same,Bas,"[…], time 28 day",0%
same,Eos,"[…], time 28 day",1.6%
same,Fbg,"[…], time 28 day",313 mg/dL
same,Hb,"[…], time 28 day",16.2 g/dL
same,Ht,"[…], time 28 day",46.8%
same,Lym,"[…], time 28 day",82.8%
same,MCH,"[…], time 28 day",20 pg
same,MCHC,"[…], time 28 day",34.6%
same,MCV,"[…], time 28 day",57.7 fL
same,Mono,"[…], time 28 day",1.8%
same,Neu,"[…], time 28 day",13%
same,PT,"[…], time 28 day",14.1 s
same,Plat,"[…], time 28 day",101.2 x10_4/uL
same,RBC,"[…], time 28 day",812.4 x10_4/ul
same,Ret,"[…], time 28 day",2.2%
same,WBC,"[…], time 28 day",93.4 x10_2/uL
same,KIDNEY_L,"[…], time 7 day",1.1 g
same,KIDNEY_R,"[…], time 7 day",1.1 g
same,KIDNEY_TOTAL,"[…], time 7 day",2.3 g
same,KIDNEY_L,"[…], time 14 day",1.3 g
same,KIDNEY_R,"[…], time 14 day",1.3 g
same,KIDNEY_TOTAL,"[…], time 14 day",2.6 g
same,KIDNEY_L,"[…], time 28 day",1.4 g
same,KIDNEY_R,"[…], time 28 day",1.4 g
same,KIDNEY_TOTAL,"[…], time 28 day",2.8 g
same,LIVER,"[…], time 7 day",12.9 g
same,LIVER,"[…], time 14 day",14.2 g
same,LIVER,"[…], time 28 day",15.7 g
same,A/G,"[…], time 7 day",0.9
same,ALP,"[…], time 7 day",1699 IU/L
same,ALT,"[…], time 7 day",43.4 IU/L
same,AST,"[…], time 7 day",66.2 IU/L
same,BUN,"[…], time 7 day",17 mg/dL
same,CRE,"[…], time 7 day",0.2 mg/dL
same,Ca,"[…], time 7 day",10.9 mg/dL
same,Cl,"[…], time 7 day",104.2 meq/L
same,DBIL,"[…], time 7 day",0.01 mg/dL
same,GLC,"[…], time 7 day",184 mg/dL
same,IP,"[…], time 7 day",7.5 mg/dL
same,K,"[…], time 7 day",3.9 meq/L
same,LDH,"[…], time 7 day",80.6 IU/L
same,Na,"[…], time 7 day",142.2 meq/L
same,PL,"[…], time 7 day",167.8 mg/dL
same,RALB,"[…], time 7 day",2.7 g/dL
same,TBIL,"[…], time 7 day",0.028 mg/dL
same,TC,"[…], time 7 day",85.2 mg/dL
same,TG,"[…], time 7 day",116.8 mg/dL
same,TP,"[…], time 7 day",5.8 g/dL
same,gamma-GTP,"[…], time 7 day",1.2 IU/L
same,A/G,"[…], time 14 day",0.9
same,ALP,"[…], time 14 day",1443.4 IU/L
same,ALT,"[…], time 14 day",42.8 IU/L
same,AST,"[…], time 14 day",61.6 IU/L
same,BUN,"[…], time 14 day",15 mg/dL
same,CRE,"[…], time 14 day",0.2 mg/dL
same,Ca,"[…], time 14 day",10.9 mg/dL
same,Cl,"[…], time 14 day",104.2 meq/L
same,DBIL,"[…], time 14 day",0.012 mg/dL
same,GLC,"[…], time 14 day",194.4 mg/dL
same,IP,"[…], time 14 day",6.7 mg/dL
same,K,"[…], time 14 day",3.9 meq/L
same,LDH,"[…], time 14 day",89 IU/L
same,Na,"[…], time 14 day",142.4 meq/L
same,PL,"[…], time 14 day",178.2 mg/dL
same,RALB,"[…], time 14 day",2.8 g/dL
same,TBIL,"[…], time 14 day",0.028 mg/dL
same,TC,"[…], time 14 day",85 mg/dL
same,TG,"[…], time 14 day",171.6 mg/dL
same,TP,"[…], time 14 day",6 g/dL
same,gamma-GTP,"[…], time 14 day",1 IU/L
same,A/G,"[…], time 28 day",0.9
same,ALP,"[…], time 28 day",1085 IU/L
same,ALT,"[…], time 28 day",35 IU/L
same,AST,"[…], time 28 day",57.2 IU/L
same,BUN,"[…], time 28 day",16.6 mg/dL
same,CRE,"[…], time 28 day",0.3 mg/dL
same,Ca,"[…], time 28 day",10.9 mg/dL
same,Cl,"[…], time 28 day",105.8 meq/L
same,DBIL,"[…], time 28 day",0.01 mg/dL
same,GLC,"[…], time 28 day",179.4 mg/dL
same,IP,"[…], time 28 day",6.2 mg/dL
same,K,"[…], time 28 day",3.9 meq/L
same,LDH,"[…], time 28 day",58 IU/L
same,Na,"[…], time 28 day",144 meq/L
same,PL,"[…], time 28 day",159.8 mg/dL
same,RALB,"[…], time 28 day",2.9 g/dL
same,TBIL,"[…], time 28 day",0.066 mg/dL
same,TC,"[…], time 28 day",77.2 mg/dL
same,TG,"[…], time 28 day",139.2 mg/dL
same,TP,"[…], time 28 day",6.3 g/dL
same,gamma-GTP,"[…], time 28 day",1.2 IU/L
